# Measurements taken from patent US6479435B1, “Diaryl ethers and processes for their preparation and herbicidal and desiccant compositions containing them” (ISK Americas Incorporated, priority 1997, dated 2002).
# Tests used:
# Assay type in all cases: in vivo
# [1] = system: Johnsongrass (Sorghum halepense, SORHA); assay: Pre-emerge greenhouse herbicide test, phytotoxicity rating; details: 14 days after application, rating scale 0-100
# Method in brief: (§1)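 Visual 0–100 injury rating (100 = all plants dead) taken 14 days after treatment. Rates of 125–1000 g ai/ha in acetone, 187 l/ha, were sprayed onto soil one day post-sowing; pots were surface-watered to incorporate, then bottom-watered.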
# [2] = system: barnyardgrass (Echinochloa crusgalli, ECHCG); assay: as above; details: 14 days after application, rating scale 0-100
# Method in brief: as §1
# [3] = system: common ragweed (Ambrosia artemisiifolia L., AMBEL); assay: as above; details: 14 days after application, rating scale 0-100
# Method in brief: as §1
# [4] = system: green foxtail (Setaria viridis, SETVI); assay: as above; details: 14 days after application, rating scale 0-100
# Method in brief: as §1
# [5] = system: ivyleaf morningglory (Ipomoea hederacea, IPOHE); assay: as above; details: 14 days after application, rating scale 0-100
# Method in brief: as §1
# [6] = system: lambsquarters (Chenopodium album, CHEAL); assay: as above; details: 14 days after application, rating scale 0-100
# Method in brief: as §1
# [7] = system: large crabgrass (Digitaria sanguinalis, DIGSA); assay: as above; details: 14 days after application, rating scale 0-100
# Method in brief: as §1
# [8] = system: redroot pigweed (Amaranthus retroflexus, AMARE); assay: as above; details: 14 days after application, rating scale 0-100
# Method in brief: as §1
# [9] = system: sicklepod (Cassia obtusifolia, CASOB); assay: as above; details: 14 days after application, rating scale 0-100
# Method in brief: as §1
# [10] = system: velvetleaf (Abutilon theophrasti, ABUTH); assay: as above; details: 14 days after application, rating scale 0-100
# Method in brief: as §1
# [11] = system: field corn (Zea mays L., var. Dekalb 535, CORN); assay: Pre-emerge greenhouse test, crop damage rating; details: 14 days after application, rating scale 0-100
# Method in brief: as §1
# [12] = system: upland rice (Oryza sp., var.Tebonnet, RICE); assay: Pre-emerge greenhouse test, crop damage rating; details: 125 g ai/ha, 14 days after application, rating scale 0-100
# Method in brief: as §1
# [13] = system: soybean (Glycine max L., var. Pella 86, SOY); assay: Pre-emerge greenhouse test, crop damage rating; details: 14 days after application, rating scale 0-100
# Method in brief: as §1
# [14] = system: common ragweed (Ambrosia artemisiifolia L., AMBEL); assay: Post-emerge greenhouse herbicide test, phytotoxicity rating; details: 14 days after application
# Method in brief: (§2)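 Scores use a 0 (no damage) to 100 (complete kill) scale, taken 14 days after a foliar spray. Acetone solutions with 0.25% v/v non-ionic surfactant were applied by track sprayer at 187 l/ha and 63-1000 g ai/ha to bottom-watered 2-3 leaf plants.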
# [15] = system: Johnsongrass (Sorghum halepense, SORHA); assay: as above; details: 14 days after application
# Method in brief: as §2
# [16] = system: barnyardgrass (Echinochloa crusgalli, ECHCG); assay: as above; details: 14 days after application
# Method in brief: as §2
# [17] = system: green foxtail (Setaria viridis, SETVI); assay: as above; details: 14 days after application
# Method in brief: as §2
# [18] = system: ivyleaf morningglory (Ipomoea hederacea, IPOHE); assay: as above; details: 14 days after application
# Method in brief: as §2
# [19] = system: lambsquarters (Chenopodium album, CHEAL); assay: as above; details: 14 days after application
# Method in brief: as §2
# [20] = system: large crabgrass (Digitaria sanguinalis, DIGSA); assay: as above; details: 63 g al/ha, 14 days after application
# Method in brief: as §2
# [21] = system: redroot pigweed (Amaranthus retroflexus, AMARE); assay: as above; details: 14 days after application
# Method in brief: as §2
# [22] = system: velvetleaf (Abutilon theophrasti, ABUTH); assay: as above; details: 14 days after application
# Method in brief: as §2
# [23] = system: field corn (Zea mays L., var. Dekalb 535, CORN); assay: Post-emerge greenhouse test, crop damage rating; details: 14 days after application
# Method in brief: as §2
# [24] = system: soybean (Glycine max L., var. Pella 86, SOY); assay: Post-emerge greenhouse test, crop damage rating; details: 14 days after application
# Method in brief: as §2
smiles,measurement,setting,value
Cn1nc(-c2cc(Oc3nc(F)c(F)cc3F)c(Cl)cc2F)c(Cl)c1C(F)(F)F [Compound 1-6],phytotoxicity rating SORHA,[1]; 125 g ai/ha,0
same,phytotoxicity rating SORHA,[1]; 500 g ai/ha,90
same,phytotoxicity rating ECHCG,[2]; 125 g ai/ha,30
same,phytotoxicity rating ECHCG,[2]; 500 g ai/ha,70
same,phytotoxicity rating AMBEL,[3]; 125 g ai/ha,100
same,phytotoxicity rating AMBEL,[3]; 500 g ai/ha,99
same,phytotoxicity rating SETVI,[4]; 125 g ai/ha,60
same,phytotoxicity rating SETVI,[4]; 500 g ai/ha,30
same,phytotoxicity rating IPOHE,[5]; 125 g ai/ha,30
same,phytotoxicity rating IPOHE,[5]; 500 g ai/ha,99
same,phytotoxicity rating CHEAL,[6]; 125 g ai/ha,40
same,phytotoxicity rating CHEAL,[6]; 500 g ai/ha,100
same,phytotoxicity rating DIGSA,[7]; 125 g ai/ha,20
same,phytotoxicity rating DIGSA,[7]; 500 g ai/ha,10
same,phytotoxicity rating AMARE,[8]; 125 g ai/ha,95
same,phytotoxicity rating AMARE,[8]; 500 g ai/ha,99
same,phytotoxicity rating CASOB,[9]; 125 g ai/ha,0
same,phytotoxicity rating CASOB,[9]; 500 g ai/ha,0
same,phytotoxicity rating ABUTH,[10]; 125 g ai/ha,50
same,phytotoxicity rating ABUTH,[10]; 500 g ai/ha,80
same,crop damage rating CORN,[11]; 125 g ai/ha,0
same,crop damage rating CORN,[11]; 500 g ai/ha,0
same,crop damage rating RICE,[12],0
same,crop damage rating SOY,[13]; 125 g ai/ha,0
same,crop damage rating SOY,[13]; 500 g ai/ha,0
same,AMBEL phytotoxicity rating (0-100),[14]; 63 g al/ha,0
same,AMBEL phytotoxicity rating (0-100),[14]; 500 g al/ha,90
same,SORHA phytotoxicity rating (0-100),[15]; 63 g al/ha,30
same,SORHA phytotoxicity rating (0-100),[15]; 500 g al/ha,70
same,ECHCG phytotoxicity rating (0-100),[16]; 63 g al/ha,20
same,ECHCG phytotoxicity rating (0-100),[16]; 500 g al/ha,70
same,SETVI phytotoxicity rating (0-100),[17]; 63 g al/ha,20
same,SETVI phytotoxicity rating (0-100),[17]; 500 g al/ha,60
same,IPOHE phytotoxicity rating (0-100),[18]; 63 g al/ha,50
same,IPOHE phytotoxicity rating (0-100),[18]; 500 g al/ha,100
same,CHEAL phytotoxicity rating (0-100),[19]; 63 g al/ha,30
same,CHEAL phytotoxicity rating (0-100),[19]; 500 g al/ha,100
same,DIGSA phytotoxicity rating (0-100),[20],0
same,AMARE phytotoxicity rating (0-100),[21]; 63 g al/ha,99
same,AMARE phytotoxicity rating (0-100),[21]; 500 g al/ha,100
same,ABUTH phytotoxicity rating (0-100),[22]; 63 g al/ha,50
same,ABUTH phytotoxicity rating (0-100),[22]; 500 g al/ha,100
same,CORN crop damage rating (0-100),[23]; 63 g al/ha,10
same,CORN crop damage rating (0-100),[23]; 500 g al/ha,10
same,SOY crop damage rating (0-100),[24]; 63 g al/ha,30
same,SOY crop damage rating (0-100),[24]; 500 g al/ha,50
